# Source: USRE39130E1 (Bayer Cropscience K.K., priority 1986, dated 2006)
# Tests used:
# [1] = system: white-backed planthopper (Sogatella furcifera); experiment: Test on planthoppers: white-backed planthopper (spray on rice plants, kill ratio); format: in vivo; conditions: sprayed rice plants, kill ratio two days later, compared with W-1, W-2 and Q-1
# Description: (§1) In the same way as above, the kill ratio on white-backed planthopper (Sogatella furcifera) and organophosphate-resistant smaller brown planthopper (Laodelphax stiatellus) was calculated.
# [2] = system: green peach aphids (Myzus persicae) having resistance to organophosphate and carbamate chemicals; experiment: Test on green peach aphids having resistance to organophosphate and carbamate chemicals (spray on eggplant seedlings, kill ratio); format: in vivo; conditions: sprayed eggplant seedlings, 28° C., kill ratio twenty-four hours after spraying; compared with W-1, W-2 and Q-2
# Description: Test on green peach aphids (Myzus persicae) having resistance to organophosphate and carbamate chemicals
# Bred green peach aphids having resistance to organophsophates and carbamates were inoculated on eggplant (black elongate variety) seedlings, about 20 cm tall, grown in unglazed pots having a diameter of 15 cm at a rate of about 200 per seedling. One day after the inoculation, a water dilution of each of the active compounds in a predetermined concentration prepared as in Example 6 was sprayed in sufficient amounts by means of a spray gun. After the spraying, the pots were left to stand in a greenhouse kept at 28° C. Twenty-four hours after the spraying, the kill ratio was calculated. The above test was carried out through two replicates.
# [3] = system: organophosphate-resistant green rice leafhoppers (Nephotettix cincticeps); experiment: Test on organophosphate-resistant green rice leafhoppers (spray on rice plants, kill ratio); conditions: sprayed rice plants, 30 female imagoes, kill ratio two days later; compared with comparison compounds W-1, W-2 and Q 2
# Description: Test on organophosphate-resistant green rice leafhoppers (Nephotettix cincticeps)
# Preparation of a test chemical
# Solvent: 3 parts by weight of xylene
# Emulsifier: 1 part by weight of polyoxyethylene alkylphenyl ether
# A water dilution of each of the reactive compounds in a predetermined concentration prepared as above was sprayed onto rice plants, about 10 cm tall, grown in pots having a diameter of 12 cm at a rate of 10 ml per pot. […] The pots were placed in a constant-temperature chamber. Two days later, the number of dead insects was examined, and the kill ratio was calculated.
# [4] = system: organophosphate-resistant smaller brown planthopper (Laodelphax stiatellus); experiment: Test on planthoppers: smaller brown planthopper (spray on rice plants, kill ratio); format: in vivo; conditions: sprayed rice plants, kill ratio two days later, compared with W-1, W-2 and Q-1
# Description: as §1
Compound,efficacy (kill ratio) compared with comparison compounds [1],efficacy (kill ratio) compared with comparison compounds [2],efficacy (kill ratio) compared with comparison compounds [3],efficacy (kill ratio) compared with comparison compounds [4]
"N#C/N=C1\NCCN1Cc1ccc(Cl)nc1 [Compound 5, 1-(2-chloro-5-pyridylmethyl)-2-cyanoiminoimidazolidine]",considerably better efficacy,considerably better efficacy,considerably better efficacy,considerably better efficacy
"Cc1cnc(CN2CCN/C2=N\C#N)cn1 [Compound 54, 1-(2-methyl-5-pyrazinylmethyl)-2-cyanoiminoimidazolidine]",,,considerably better efficacy,
N#C/N=C1\SCCN1Cc1cnc(Cl)s1 [Compound 69],,considerably better efficacy,considerably better efficacy,
